This is an account of results in BindingDB's records for doi:10.1021/cc0600021 (Darmstadt Technical University, 2006).

A value given as a limit tells only on which side of the number the result lay.

Chain of Beta-secretase 1 (P56817 whole entry): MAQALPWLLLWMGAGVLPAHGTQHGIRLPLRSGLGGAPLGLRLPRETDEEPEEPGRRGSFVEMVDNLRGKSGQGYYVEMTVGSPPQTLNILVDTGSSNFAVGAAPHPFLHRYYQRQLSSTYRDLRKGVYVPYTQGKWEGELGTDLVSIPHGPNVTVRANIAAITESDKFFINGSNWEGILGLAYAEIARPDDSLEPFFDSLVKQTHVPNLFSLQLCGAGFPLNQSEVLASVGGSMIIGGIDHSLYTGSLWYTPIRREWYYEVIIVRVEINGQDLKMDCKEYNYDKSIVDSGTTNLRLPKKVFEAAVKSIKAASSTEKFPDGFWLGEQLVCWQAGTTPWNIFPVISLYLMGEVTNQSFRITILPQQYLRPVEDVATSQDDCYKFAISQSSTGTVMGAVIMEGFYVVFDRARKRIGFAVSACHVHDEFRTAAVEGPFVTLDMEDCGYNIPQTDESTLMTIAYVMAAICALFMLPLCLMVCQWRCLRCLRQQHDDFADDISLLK

The assay deals with Beta-secretase 1 (Homo sapiens, UniProt P56817). Briefly: Fluorescence Resonance Energy Transfer (FRET) Assay. Particulars: 20 °C. Here is the method:
The FRET assay was performed at 20 C on a FLUOstar (BMG Lab Technologies, D-77656 Offenburg) using 96-well microtiter plates (Dynex Microfluor 2, Chantilly, VA).
As to `CC(C)CC1NC(=O)C(SCC(=O)NCc2ccc3c(c2)OCO3)C1=O` (configuration not stated) [Tetramic acid, 30], 200 µM corresponded to half-maximal inhibition (IC50). For the compound `COc1ccc(CN2CC(=O)C(Sc3ccccc3)C2=O)cc1` (configuration not stated) [N-Substituted tetramic acid, 91], the IC50 – broadly, the concentration at which inhibition is half-maximal – was more than 200 µM. Next, `O=C1OC(c2ccccc2)C(=O)C1SCCc1ccccc1` (configuration not stated) [Tetramic acid, 74]: more than 200 µM; `O=C1OC(c2ccccc2)C(=O)C1Sc1ccccc1` (configuration not stated) [Tetramic acid, 72]: 105 µM.

`O=C1CN(Cc2ccccc2)C(=O)C1SCc1cccc(C(F)(F)F)c1` (configuration not stated) [N-Substituted tetramic acid, 92]: the IC50 came to 212 µM. Next, `CC(C)CC1NC(=O)C(SCc2cccc(C(F)(F)F)c2)C1=O` (configuration not stated) [Tetramic acid, 25]: 194 µM.

Consider `CCC(C)C1NC(=O)C(SCc2ccco2)C1=O` (configuration not stated) [Tetramic acid, 43], for which the IC50 was determined as 200 µM. The result for `O=C1OC(CCc2ccccc2)C(=O)C1SCc1cccc(C(F)(F)F)c1` (configuration not stated) [Tetramic acid, 77] reads more than 200 µM; that for `O=C1CN(Cc2cccc(C(F)(F)F)c2)C(=O)C1Sc1ccccc1` (configuration not stated) [N-Substituted tetramic acid, 89], more than 200 µM. Next, `CCC(C)C1NC(=O)C(SCC(=O)NCc2ccc3c(c2)OCO3)C1=O` (configuration not stated) [Tetramic acid, 44]: more than 200 µM. In turn, `CCC(C)C1NC(=O)C(SCc2cccc(C(F)(F)F)c2)C1=O` (configuration not stated) [Tetramic acid, 38] gave an IC50 of 60 µM. That is a double-digit micromolar value. `O=C1NC(Cc2ccccc2)C(=O)C1SCc1ccco1` (configuration not stated) [Tetramic acid, 56] yielded a half-maximal inhibitory concentration (IC50) of 145 µM.
